We go through three compounds from ChEMBL document CHEMBL1133204, “Synthesis and biological activities of an alpha-methyl and a beta-methyl carbapenem and the corresponding unsubstituted compound” (Bioorg Med Chem Lett, 2000).

Data set [1] relates to Enterobacter cloacae. Briefly: Minimum inhibitory concentration against Enterobacter cloacae in DIFCO nutrient agar after 18 h incubation period at 37 degree C. The class given is functional.
Data set [2] addresses Beta-lactamase TEM (Escherichia coli, UniProt P62593). In words: Beta-Lactamase inhibition activity after 15 min of pre-incubation with the enzyme isolated from Escherichia coli 205 TEM.
The nature of data set [3]: Minimum inhibitory concentration against S. Innsbruck in DIFCO nutrient agar after 18 h incubation period at 37 degree C.
In data set [4] the test system is Pseudomonas aeruginosa. In words: Minimum inhibitory concentration against Pseudomonas aeruginosa. res in DIFCO nutrient agar after 18 hr incubation period at 37 degree C. The class given is functional.
Data set [5] deals with Staphylococcus aureus. In words: Minimum inhibitory concentration against Staphylococcus aureus 1104 in DIFCO nutrient agar after 18 hr incubation period at 37 degree C. The class given is functional.
Data set [6] has as its system Escherichia coli. In words: Minimum inhibitory concentration against Escherichia coli 205 TEM in DIFCO nutrient agar after 18 hr incubation period at 37 degree C. The data set is classed as functional.
Data set [7] deals with Staphylococcus aureus. Briefly: Minimum inhibitory concentration against Staphylococcus aureus res in DIFCO nutrient agar after 18 hr incubation period at 37 degree C. The data set is classed as functional.
For data set [8], the system named is Enterococcus sp. In words: Minimum inhibitory concentration against Enterobacter coccus in DIFCO nutrient agar after 18 hr incubation period at 37 degree C. The data set is classed as functional.
Data set [9] concerns Pseudomonas aeruginosa. Briefly: Minimum inhibitory concentration against Pseudomonas aeruginosa in DIFCO nutrient agar after 18 hr incubation period at 37 degree C. The data set is classed as functional.
Data set [10] in a line: Half life of hydrolysis of compound at pH 7.4, 37 degree C. The data set is classed as ADME. The settings on record: buffer.
The subject of data set [11] is Escherichia coli. In words: Minimum inhibitory concentration against Escherichia coli 1103 in DIFCO nutrient agar after 18 hr incubation period at 37 degree C. The data set is classed as functional.
Data set [12] has as its target Beta-lactamase (Enterobacter cloacae, UniProt P05364). In words: Beta-Lactamase inhibition activity after 15 min of pre-incubation with the enzyme isolated from Enterobacter cloacae.
In data set [13] the test system is Staphylococcus aureus. In words: Minimum inhibitory concentration against Staph 25768 in DIFCO nutrient agar after 18 hr incubation period at 37 degree C. The data set is classed as functional.
Data set [14] has as its system Staphylococcus aureus. Briefly: Minimum inhibitory concentration against Staphylococcus aureus in DIFCO nutrient agar after 18 hr incubation period at 37 degree C. The data set is classed as functional.

Beta-lactamase, sequence (P05364 whole entry): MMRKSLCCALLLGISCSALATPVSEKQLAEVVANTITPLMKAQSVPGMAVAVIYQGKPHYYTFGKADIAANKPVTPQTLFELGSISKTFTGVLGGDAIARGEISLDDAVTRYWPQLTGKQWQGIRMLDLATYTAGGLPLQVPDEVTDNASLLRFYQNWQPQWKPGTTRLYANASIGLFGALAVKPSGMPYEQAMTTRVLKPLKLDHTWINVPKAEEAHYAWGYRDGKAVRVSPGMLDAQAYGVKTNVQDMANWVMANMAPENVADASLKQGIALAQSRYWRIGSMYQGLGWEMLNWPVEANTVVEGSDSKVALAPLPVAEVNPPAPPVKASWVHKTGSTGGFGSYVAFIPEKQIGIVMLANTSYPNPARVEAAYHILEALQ
Beta-lactamase TEM, sequence (P62593 whole entry): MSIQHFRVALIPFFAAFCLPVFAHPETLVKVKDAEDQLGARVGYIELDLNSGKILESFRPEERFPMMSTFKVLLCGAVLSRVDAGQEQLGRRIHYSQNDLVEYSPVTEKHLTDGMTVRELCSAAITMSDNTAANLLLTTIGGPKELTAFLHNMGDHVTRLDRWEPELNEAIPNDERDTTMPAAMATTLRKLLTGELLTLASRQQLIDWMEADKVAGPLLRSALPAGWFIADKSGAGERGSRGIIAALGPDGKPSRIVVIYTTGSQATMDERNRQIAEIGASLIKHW

For `COC1=C(C(=O)[O-])N2C(=O)[C@H]([C@@H](C)O)[C@H]2C1.[K+]`, the MIC was 5 µg/mL in data set [1]; 25 µg/mL in data set [3]; greater than 50 µg/mL in data set [4]; 1 µg/mL in data set [5]; 1 µg/mL in data set [6]; 2 µg/mL in data set [7]. The MIC was 50 µg/mL in [8], greater than 50 µg/mL in [9], 2 µg/mL in [11] and 5 µg/mL in data set [13]. For the same compound, the IC50 in [2] is 0.00034 M l-1; in [12] it was 510 nM. In data set [10], this compound gave a half-life of 5.75 h.

Take `COC1=C(C(=O)[O-])N2C(=O)[C@H]([C@@H](C)O)C2[C@H]1C.[K+]` (some centres undefined): the MIC in data set [1] was 5 µg/mL; in data set [3] it was greater than 50 µg/mL; in data set [4], greater than 50 µg/mL; in data set [5], 25 µg/mL; in data set [6] it was 0.5 µg/mL; in data set [7], 25 µg/mL. The MIC was greater than 50 µg/mL in data set [8], greater than 50 µg/mL in data set [9], 1 µg/mL in data set [11] and greater than 50 µg/mL in data set [13]. Besides, the values for the IC50 in data set [2] (read-out: IC50) and in data set [12] were 130 nM and 2100 nM, respectively. Also, the half-life in data set [10] was 72 h.

As for `COC1=C(C(=O)[O-])N2C(=O)[C@H]([C@@H](C)O)C2[C@@H]1C.[K+]` (some centres undefined), the MIC in [1] is 25 µg/mL; in [3] it was greater than 50 µg/mL; in [4] it was greater than 50 µg/mL; in data set [5], less than 0.5 µg/mL; in data set [14], 1 µg/mL; in data set [6], 5 µg/mL. The MIC in data set [8] was greater than 50 µg/mL; in data set [9], greater than 50 µg/mL; in data set [11], 10 µg/mL; in [13], 5 µg/mL. The results for the IC50 in data set [2] (read-out: IC50) and in data set [12] were 230 nM and 82 nM, respectively. Moreover, the half-life in data set [10] was 3.25 h.
